Each compound was assayed against T1, SYK kinase (Homo sapiens, UniProt P43405) (assay: In vitro Syk inhibition assay (Kinase TK HTRF, Cisbio)). Conditions: full length SYK purified from a baculovirus system; ATP at least twice the Km; room temperature; average of triplicate; read-out: IC50: Concentration inhibiting 50% of protein kinase.
T1 construct: SYK kinase was purified as a full length protein in a baculovirus system near homogeneity; made in house
Format: biochemical
Protocol: Protocol Inhibition Assays.
SYK kinase was purified as a full length protein in a baculovirus system near homogeneity. All kinase assays were performed with the Kinase TK (tyrosine kinase) HTRF (Homogeneous Time Resolved Fluorescence) assay developed by Cisbio international. These assays were carried out at room temperature in 96-wells half-area white plates in a final volume of 25 μl of kinase buffer (10 mM MgCl2; 2 mM MnCl2; 50 mM Sodium-HEPES pH 7.8; BRIJ-35 0.01%, 1 μM substrate) containing ATP at a concentration of at least twice the Km for each enzyme and an appropriate amount of recombinant enzyme to ensure a linear reaction rate. Reactions were initiated upon introduction of the enzyme and terminated with the addition of one reaction volume (25 μl) of HTRF detection buffer. Plates were incubated for one hour at room temperature and the time resolved Fluorescence resonance energy transfer signal was measured in a Pherastar FS microplate reader (BMG Labtech). All data are the average of triplicate results with a standard deviation <10%.

**Q.** Which IC50 does the source give for `CC1C(=O)NCCN1c1ncc(-c2cccc(Nc3nccc(N4CCOCC4)n3)c2)o1` (stereo not shown) [Compound 027, 3-Methyl-4-{5-[3-(4-morpholin-4-yl-pyrimidin-2-ylamino)-phenyl]-oxazol-2-yl}-piperazin-2-one] here?
**A.** Its IC50 is 100 to 1000 nM.

**Q.** For `CC(C)C1C(=O)NCCN1c1ncc(-c2cccc(Nc3nccc(C4CC4)n3)c2)o1` (stereo not shown) [Compound 043, 4-{5-[3-(4-Cyclopropyl-pyrimidin-2-ylamino)-phenyl]-oxazol-2-yl}-3-isopropyl-piperazin-2-one], which IC50 is on record?
**A.** The IC50 was at most 100 nM.

**Q.** `CC1C(=O)NCCN1c1ncc(-c2cccc(Nc3nccc(N4CCN(C)CC4)n3)c2)o1` (stereo not shown) [Compound 029, 3-Methyl-4-(5-{3-[4-(4-methyl-piperazin-1-yl)-pyrimidin-2-ylamino]-phenyl}-oxazol-2-yl)-piperazin-2-one] was tested. Which IC50 did it give?
**A.** The IC50 was 1000 to 10000 nM.

**Q.** Which IC50 does the source give for `CCc1ccnc(Nc2cccc(-c3cnc(N4CCNC(=O)C4C(C)C)o3)c2)n1` (stereo not shown) [Compound 038, 4-{5-[3-(4-Ethyl-pyrimidin-2-ylamino)-phenyl]-oxazol-2-yl}-3-isopropyl-piperazin-2-one] here?
**A.** The IC50 was at most 100 nM.

**Q.** How did the IC50 turn out when `CC(C)C1C(=O)NCCN1c1ncc(-c2cccc(Nc3nccc(N4CCOCC4)n3)c2)o1` (stereo not shown) [Compound 033, 3-Isopropyl-4-{5-[3-(4-morpholin-4-yl-pyrimidin-2-ylamino)-phenyl]-oxazol-2-yl}-piperazin-2-one] was run?
**A.** Its IC50 is 1000 to 10000 nM.

**Q.** With `Cc1ccnc(Nc2cccc(-c3cnc(N4CCNC(=O)C4C(C)C)o3)c2)n1` (stereo not shown) [Compound 003, 3-Isopropyl-4-{5-[3-(4-methyl-pyrimidin-2-ylamino)-phenyl]-oxazol-2-yl}-piperazin-2-one] as the compound, how does the IC50 read?
**A.** Its IC50 is at most 100 nM.

**Q.** With `Cc1ccnc(Nc2cccc(-c3cnc(N4CCNC(=O)[C@H]4C(C)C)o3)c2)n1` [Compound 040, (R)-3-Isopropyl-4-{5-[3-(4-methyl-pyrimidin-2-ylamino)-phenyl]-oxazol-2-yl}-piperazin-2-one] as the compound, how does the IC50 read?
**A.** Its IC50 is at most 100 nM.

**Q.** How did the IC50 turn out when `CN1CCN(c2ccnc(Nc3cccc(-c4cnc(N5CCNC(=O)C5(C)C)o4)c3)n2)CC1` [Compound 031, 3,3-Dimethyl-4-(5-{3-[4-(4-methyl-piperazin-1-yl)-pyrimidin-2-ylamino]-phenyl}-oxazol-2-yl)-piperazin-2-one] was run?
**A.** Its IC50 is 1000 to 10000 nM.

**Q.** `CC1(C)C(=O)NCCN1c1ncc(-c2cccc(Nc3nccc(C(F)(F)F)n3)c2)o1` [Compound 018, 3,3-Dimethyl-4-{5-[3-((4-trifluoromethyl)-pyrimidin-2-ylamino)-phenyl]-oxazol-2-yl}-piperazin-2-one] was tested. Which IC50 did it give?
**A.** Its IC50 is at most 100 nM.

**Q.** How did the IC50 turn out when `COc1ccnc(Nc2cccc(-c3cnc(N4CCNC(=O)C4(C)C)o3)c2)n1` [Compound 026, 4-{5-[3-(4-Methoxy-pyrimidin-2-ylamino)-phenyl]-oxazol-2-yl}-3,3-dimethyl-piperazin-2-one] was run?
**A.** Its IC50 is at most 100 nM.

Source: patent US10392373B2, “Oxazole derivatives that inhibit Syk” (AB Science, priority 2015, dated 2019)
